In BindingDB's records for patent US10202390 (Bristol-Myers Squibb Co., 2019):

Target: T1, Interleukin-1 receptor-associated kinase 4 (Homo sapiens, UniProt Q9NWZ3)
T1 sequence (Q9NWZ3 whole entry): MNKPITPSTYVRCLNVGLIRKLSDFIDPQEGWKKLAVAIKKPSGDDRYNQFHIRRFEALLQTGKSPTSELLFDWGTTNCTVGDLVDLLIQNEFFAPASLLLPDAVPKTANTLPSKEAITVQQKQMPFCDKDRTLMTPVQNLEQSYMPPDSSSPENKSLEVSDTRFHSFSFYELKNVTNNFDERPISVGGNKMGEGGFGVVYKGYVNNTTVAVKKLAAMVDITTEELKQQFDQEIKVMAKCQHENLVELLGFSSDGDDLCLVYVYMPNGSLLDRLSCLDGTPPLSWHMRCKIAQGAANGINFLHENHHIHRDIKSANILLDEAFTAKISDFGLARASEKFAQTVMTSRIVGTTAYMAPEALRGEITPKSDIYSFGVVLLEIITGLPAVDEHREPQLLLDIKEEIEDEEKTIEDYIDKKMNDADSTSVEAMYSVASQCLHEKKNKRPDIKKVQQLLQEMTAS
Test: Not found
Excerpt: Not found

| IC50 | Structure (SMILES) |
| --- | --- |
| 10 nM | CC(C)(O)CCc1cn(-c2cnc(-c3cnn4cc(C#N)cnc34)cc2NC2COC2)nn1 [US10202390, Example 26] |
| 63 nM | CC(C)Nc1cc(-c2cnc3cc(Cl)cnn23)ncc1-c1cnn(C2CCOCC2)c1 [US10202390, Example 2] |
